Reference: patent publication US20250025443A1, “COMPOUNDS AND METHODS FOR TREATING CORONA VIRUSES” (CLEAR CREEK BIO, INC., priority 2021, published 2025)
pIC50: −log10 of the molar value.

These compounds were tested against SARS-CoV-2 Papain-Like Protease (PLpro) (Severe acute respiratory syndrome coronavirus 2 (2019-nCoV) (SARS-CoV-2), UniProt P0DTD1) (assay: biochemical). Conditions: PLpro 6.25 nM, substrate 25 μM, 60 min at 25° C.; for more potent compounds PLpro 1 nM, 120 min; read-out: PLpro IC50.

Q: With `Cc1ccc(O)cc1C(=O)N[C@H](C)c1cccc2ccccc12` [Compound 101, (R)-5-Hydroxy-2-methyl-N-(1-(naphthalen-1-yl)ethyl)benzamide] as the compound, how does the pIC50 read?
A: The pIC50 was 5.30 to 6.00.

Q: How did the pIC50 turn out when `Cc1ccc(NC2CNC2)cc1C(=O)NC(C)c1cccc2c1CCCC2` (centres unmarked) [Compound 172, 5-(Azetidin-3-ylamino)-2-methyl-N-(1-(5,6,7,8-tetrahydronaphthalen-1-yl)ethyl)benzamide] was run?
A: The pIC50 was under 5.30.

Same assay, conditions: PLpro enzymatic fluorescence assay; class symbols; read-out: PLpro IC50

Q: `Cc1ccc(OC[C@@H]2CCN2C)cc1C(=O)NC1(c2cc(N3CCCC3)cc3ncccc23)CC1` [Compound 683, (S)-2-Methyl-5-((1-methylazetidin-2-yl)methoxy)-N-(1-(7-(pyrrolidin-1-yl)quinolin-5-yl)cyclopropyl)benzamide] was tested. Which pIC50 did it give?
A: Its pIC50 is over 7.00.

Q: How did the pIC50 turn out when `Cc1ccc(OC[C@@H]2CCN2C)cc1C(=O)NC1(c2cc(C(C)O)cc3ncccc23)CC1` (stereo partly drawn) [Compound 676, N-(1-(7-(1-Hydroxyethyl)quinolin-5-yl)cyclopropyl)-2-methyl-5-(((S)-1-methylazetidin-2-yl)methoxy)benzamide] was run?
A: The pIC50 was over 7.00.

Q: `COc1cc(C2(NC(=O)c3cc(O[C@H]4CC[C@@H]5CN(C(=O)OC(C)(C)C)CCN5C4)ccc3C)CC2)c2cccnc2c1` [Compound 776] was tested. Which pIC50 did it give?
A: Its pIC50 is over 7.00.

Q: “(S)—N-(1-(7-Methoxy-2-methylquinolin-5-yl)cyclopropyl)-2-methyl-5-((1-(methyl-d3)azetidin-2-yl)methoxy)benzamide [Compound 798]” was tested. Which pIC50 did it give?
A: Its pIC50 is over 7.00.

Q: `Cc1ccc(OC[C@@H]2CCN2C)cc1C(=O)NC1(c2cc(-c3ccc(C(C)O)s3)cc3ncccc23)CC1` (stereo partly drawn) [Compound 762, N-(1-(7-(5-(1-Hydroxyethyl)thiophen-2-yl)quinolin-5-yl)cyclopropyl)-2-methyl-5-(((S)-1-methylazetidin-2-yl)methoxy)benzamide] was tested. Which pIC50 did it give?
A: The pIC50 was over 7.00.

Q: With `Cc1ccc(OC[C@@H]2CCN2C)cc1C(=O)NC1(c2cc(OS(=O)(=O)C(F)(F)F)cc3ncccc23)CC1` [Compound 739, (S)-5-(1-(2-Methyl-5-((1-methylazetidin-2-yl)methoxy)benzamido)cyclopropyl)quinolin-7-yl trifluoromethanesulfonate] as the compound, how does the pIC50 read?
A: Its pIC50 is over 7.00.

Q: How did the pIC50 turn out when `CC(=O)c1ccc(-c2cc(C3(NC(=O)c4cc(OC[C@@H]5CCN5C)ccc4C)CC3)c3cccnc3c2)s1` [Compound 657, (S)-N-(1-(7-(5-Acetylthiophen-2-yl)quinolin-5-yl)cyclopropyl)-2-methyl-5-((1-methylazetidin-2-yl)methoxy)benzamide] was run?
A: Its pIC50 is over 7.00.

Q: `Cc1ccc(OC[C@@H]2CCN2C)cc1C(=O)NC1(c2cc(NCC(F)(F)F)cc3ncccc23)CC1` [Compound 759, (S)-2-Methyl-5-((1-methylazetidin-2-yl)methoxy)-N-(1-(7-((2,2,2-trifluoroethyl)amino)quinolin-5-yl)cyclopropyl)benzamide] was tested. Which pIC50 did it give?
A: The pIC50 was over 7.00.

Q: How did the pIC50 turn out when `Cc1ccc(-c2cc(C3(NC(=O)c4cc(OCC5CCN5C)ccc4C)CC3)c3ccccc3c2)s1` (centres unmarked) [Compound 493, 2-Methyl-5-((1-methylazetidin-2-yl)methoxy)-N-(1-(3-(5-methylthiophen-2-yl)naphthalen-1-yl)cyclopropyl)benzamide] was run?
A: The pIC50 was over 7.00.

Q: With `Cc1ccc(OC[C@@H]2CCN2C)cc1C(=O)NC1(c2cc(-c3cncc(N4CCOCC4)c3)cc3ncccc23)CC1` [Compound 699, (S)-2-Methyl-5-((1-methylazetidin-2-yl)methoxy)-N-(1-(7-(5-morpholinopyridin-3-yl)quinolin-5-yl)cyclopropyl)benzamide] as the compound, how does the pIC50 read?
A: The pIC50 was over 7.00.

Q: With `Cc1ccc(OC[C@@H]2CCN2)cc1C(=O)NC1(c2cc(-c3ccc4nccn4c3)cc3ncccc23)CC1` [Compound 686, (S)-5-(Azetidin-2-ylmethoxy)-N-(1-(7-(imidazo[1,2-a]pyridin-6-yl)quinolin-5-yl)cyclopropyl)-2-methylbenzamide] as the compound, how does the pIC50 read?
A: Its pIC50 is over 7.00.

Q: `Cc1ncc(-c2cc(C3(NC(=O)c4cc(OC[C@@H]5CCN5C)ccc4C)CC3)c3cccnc3c2)o1` [Compound 716, (S)-2-Methyl-5-((1-methylazetidin-2-yl)methoxy)-N-(1-(7-(2-methyloxazol-5-yl)quinolin-5-yl)cyclopropyl)benzamide] was tested. Which pIC50 did it give?
A: The pIC50 was over 7.00.

Q: `Cc1ccc([N+](=O)[O-])cc1CNC(c1cccc2ccccc12)C1COC1` (centres unmarked) [Compound 110] was tested. Which pIC50 did it give?
A: The pIC50 was under 5.30.

Same assay, conditions: SARS-CoV-2 PLpro enzymatic fluorescence assay; read-out: PLpro IC50

Q: How did the pIC50 turn out when `Cc1cc2c(cc1C(=O)NC1(c3cccc4ccccc34)CC1)n(C)c(=O)n2C` [Compound 237, 1,3,6-Trimethyl-N-(1-(naphthalen-1-yl)cyclopropyl)-2-oxo-2,3-dihydro-1H-benzo[d]imidazole-5-carboxamide] was run?
A: Its pIC50 is 5.30 to 6.00.

Q: With `Cc1ccc(C2CCNC2)cc1C(=O)NC1(c2cccc3ccccc23)CC1` (centres unmarked) [Compound 413, 2-Methyl-N-(1-(naphthalen-1-yl)cyclopropyl)-5-(pyrrolidin-3-yl)benzamide] as the compound, how does the pIC50 read?
A: The pIC50 was over 7.00.

Q: With `COc1cc(C2(NC(=O)c3cc(OC[C@@H]4CCN4C)ccc3C)CC2)c2ccccc2n1` [Compound 555, (S)-N-(1-(2-Methoxyquinolin-4-yl)cyclopropyl)-2-methyl-5-((1-methylazetidin-2-yl)methoxy)benzamide] as the compound, how does the pIC50 read?
A: Its pIC50 is over 7.00.

Q: With `Cc1ccc(OCCN2CC(F)C2)cc1C(=O)NC1(c2cccc3ccccc23)CC1` [Compound 300, 5-(2-(3-Fluoroazetidin-1-yl)ethoxy)-2-methyl-N-(1-(naphthalen-1-yl)cyclopropyl)benzamide] as the compound, how does the pIC50 read?
A: Its pIC50 is over 7.00.

Q: How did the pIC50 turn out when `Cc1ccc(C2=CCNC2)cc1C(=O)NC1(c2cccc3ccccc23)CC1` [Compound 398, 5-(2,5-Dihydro-1H-pyrrol-3-yl)-2-methyl-N-(1-(naphthalen-1-yl)cyclopropyl)benzamide] was run?
A: Its pIC50 is over 7.00.

Q: How did the pIC50 turn out when `Cc1ccc(OCC2CCN2CC(F)(F)F)cc1C(=O)NC1(c2cccc3ccccc23)CC1` (centres unmarked) [Compound 396, 2-Methyl-N-(1-(naphthalen-1-yl)cyclopropyl)-5-((1-(2,2,2-trifluoroethyl)azetidin-2-yl)methoxy)benzamide] was run?
A: The pIC50 was 5.30 to 6.00.

Q: `Cc1ccc(OC[C@H]2CCN2C)cc1C(=O)NC1(c2cccc3ncccc23)CC1` [Compound 390, (R)-2-Methyl-5-((1-methylazetidin-2-yl)methoxy)-N-(1-(quinolin-5-yl)cyclopropyl)benzamide] was tested. Which pIC50 did it give?
A: Its pIC50 is over 7.00.

Q: How did the pIC50 turn out when `Cc1ccc(OCC2CCN2)cc1C(=O)NC1(c2cccc3ccccc23)CC1` (centres unmarked) [Compound 274, 5-(Azetidin-2-ylmethoxy)-2-methyl-N-(1-(naphthalen-1-yl)cyclopropyl)benzamide] was run?
A: The pIC50 was over 7.00.

Q: How did the pIC50 turn out when `Cc1ccc(OCCN(C)C)cc1C(=O)NC1(c2cccc3cccnc23)CC1` [Compound 388, 5-(2-(Dimethylamino)ethoxy)-2-methyl-N-(1-(quinolin-8-yl)cyclopropyl)benzamide] was run?
A: Its pIC50 is over 7.00.

Q: `CC(=O)NCCOc1ccc(C)c(C(=O)NC2(c3cccc4ccccc34)CC2)c1` [Compound 425, 5-(2-Acetamidoethoxy)-2-methyl-N-(1-(naphthalen-1-yl)cyclopropyl)benzamide] was tested. Which pIC50 did it give?
A: The pIC50 was 6.00 to 7.00.

Q: `COc1cc(C2(NC(=O)c3cc(OC[C@@H]4C[C@@H](F)CN4C)ccc3C)CC2)c2ccccc2c1` [Compound 489, 5-(((2S,4R)-4-Fluoro-1-methylpyrrolidin-2-yl)methoxy)-N-(1-(3-methoxynaphthalen-1-yl)cyclopropyl)-2-methylbenzamide] was tested. Which pIC50 did it give?
A: Its pIC50 is over 7.00.

Q: `CNCCOc1ccc(C)c(C(=O)NC2(c3cc(-c4cccs4)cc4ccccc34)CC2)c1` [Compound 486, 2-Methyl-5-(2-(methylamino)ethoxy)-N-(1-(3-(thiophen-2-yl)naphthalen-1-yl)cyclopropyl)benzamide] was tested. Which pIC50 did it give?
A: The pIC50 was over 7.00.

Q: With `Cc1cc(N)c(OCC2CCN2C)cc1C(=O)NC1(c2cccc3ccccc23)CC1` (centres unmarked) [Compound 487, 4-Amino-2-methyl-5-((1-methylazetidin-2-yl)methoxy)-N-(1-(naphthalen-1-yl)cyclopropyl)benzamide] as the compound, how does the pIC50 read?
A: Its pIC50 is over 7.00.

Q: How did the pIC50 turn out when `Cc1ccc(OCC2CCN2C)cc1C(=O)NC1(c2cccc3ccc(N)cc23)CC1` (centres unmarked) [Compound 483, N-(1-(7-Aminonaphthalen-1-yl)cyclopropyl)-2-methyl-5-((1-methylazetidin-2-yl)methoxy)benzamide] was run?
A: The pIC50 was over 7.00.

Q: With `Cc1ccc(C(N)=O)cc1C(=O)NC1(c2cccc3ccccc23)CC1` [Compound 257] as the compound, how does the pIC50 read?
A: Its pIC50 is 6.00 to 7.00.

Q: `Cc1ccc(OCCN(C)C)cc1C(=O)NC1(c2cccc(Br)c2)CC1` [Compound 261, N-(1-(3-Bromophenyl)cyclopropyl)-5-(2-(dimethylamino)ethoxy)-2-methylbenzamide] was tested. Which pIC50 did it give?
A: The pIC50 was 5.30 to 6.00.

Q: How did the pIC50 turn out when `Cc1cc(C#Cc2ccccc2)c(N)cc1C(=O)NC1(c2cccc3ccccc23)CC1` [Compound 217, 5-Amino-2-methyl-N-(1-(naphthalen-1-yl)cyclopropyl)-4-(phenylethynyl)benzamide] was run?
A: Its pIC50 is under 5.30.

Q: With `Cc1ccc(N)cc1C(=O)NC(CF)c1cccc2ccccc12` (centres unmarked) [Compound 200, 5-Amino-N-(2-fluoro-1-(naphthalen-1-yl)ethyl)-2-methylbenzamide] as the compound, how does the pIC50 read?
A: Its pIC50 is 5.30 to 6.00.

Q: `CCCC1COc2cc(C(=O)NC3(c4cccc5ccccc45)CC3)c(C)cc21` (centres unmarked) [Compound 397, 5-Methyl-N-(1-(naphthalen-1-yl)cyclopropyl)-3-propyl-2,3-dihydrobenzofuran-6-carboxamide] was tested. Which pIC50 did it give?
A: The pIC50 was 6.00 to 7.00.

Q: With `CC(=O)N(c1ccc(C)c(C(=O)N[C@H](C)c2cccc3ccccc23)c1)C(CN)CO` (stereo partly drawn) [Compound 165, 5-(N-(1-Amino-3-hydroxypropan-2-yl)acetamido)-2-methyl-N-((R)-1-(naphthalen-1-yl)ethyl)benzamide] as the compound, how does the pIC50 read?
A: Its pIC50 is under 5.30.

Q: `Cc1ccc(OCC2CCN2CC2CC2)cc1C(=O)NC1(c2cccc3ccccc23)CC1` (centres unmarked) [Compound 332, 5-((1-(Cyclopropylmethyl)azetidin-2-yl)methoxy)-2-methyl-N-(1-(naphthalen-1-yl)cyclopropyl)benzamide] was tested. Which pIC50 did it give?
A: The pIC50 was over 7.00.

Q: `COc1cc(C2(NC(=O)c3cc(OC[C@@H]4CCCCN4)ccc3C)CC2)c2cccnc2c1` [Compound 550, (S)-N-(1-(7-Methoxyquinolin-5-yl)cyclopropyl)-2-methyl-5-(piperidin-2-ylmethoxy)benzamide] was tested. Which pIC50 did it give?
A: Its pIC50 is over 7.00.

Q: `Cc1ccc(OC2CCCN(C)C2)cc1C(=O)NC1(c2cccc3ccccc23)CC1` (centres unmarked) [Compound 289, 2-Methyl-5-((1-methylpiperidin-3-yl)oxy)-N-(1-(naphthalen-1-yl)cyclopropyl)benzamide] was tested. Which pIC50 did it give?
A: The pIC50 was 6.00 to 7.00.
